Test [1] concerns the target AE1. Particulars: read-out: Kd of bicarbonate; flux studies in erythrocytes; cited from earlier work.
For test [2], the target named is AE1. The following applies: read-out: Kd of bicarbonate; NMR studies; cited from earlier work.
In test [3] the target is T1, AE1 (Homo sapiens, UniProt P02730).
T1 sequence (P02730 1-911): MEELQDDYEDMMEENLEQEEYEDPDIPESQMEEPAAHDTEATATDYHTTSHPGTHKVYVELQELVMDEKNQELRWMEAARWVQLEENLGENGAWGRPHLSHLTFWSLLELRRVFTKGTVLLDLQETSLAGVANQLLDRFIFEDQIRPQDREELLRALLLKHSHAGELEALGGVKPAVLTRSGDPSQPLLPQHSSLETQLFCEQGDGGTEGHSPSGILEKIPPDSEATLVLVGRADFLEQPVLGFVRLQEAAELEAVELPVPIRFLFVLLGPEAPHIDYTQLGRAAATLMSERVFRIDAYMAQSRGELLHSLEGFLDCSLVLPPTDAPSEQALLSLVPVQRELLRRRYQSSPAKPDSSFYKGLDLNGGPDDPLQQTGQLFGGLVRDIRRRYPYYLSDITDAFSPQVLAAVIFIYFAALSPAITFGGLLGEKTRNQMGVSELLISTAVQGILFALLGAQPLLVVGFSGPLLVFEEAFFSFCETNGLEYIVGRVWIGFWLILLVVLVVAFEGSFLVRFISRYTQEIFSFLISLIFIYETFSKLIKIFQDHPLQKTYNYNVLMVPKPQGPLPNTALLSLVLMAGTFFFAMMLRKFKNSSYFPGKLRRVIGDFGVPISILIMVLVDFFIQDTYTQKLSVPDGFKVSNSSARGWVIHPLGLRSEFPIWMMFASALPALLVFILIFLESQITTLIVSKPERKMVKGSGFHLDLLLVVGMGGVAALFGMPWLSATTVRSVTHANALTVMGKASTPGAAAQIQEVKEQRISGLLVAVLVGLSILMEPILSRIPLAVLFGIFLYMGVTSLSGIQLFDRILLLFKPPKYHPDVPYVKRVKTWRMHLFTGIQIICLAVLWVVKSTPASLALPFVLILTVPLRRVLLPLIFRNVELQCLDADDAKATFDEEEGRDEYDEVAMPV
Put plainly: Cellular bicarbonate uptake assay. Type of test: cell-based.

pIC50, pKd: −log10 of the molar value. Like-named read-outs stand apart in the source and are kept apart here.

As for `O=C(O)O` [bicarbonate], the pKd (as a rule, −log10 of the Kd, conventionally taken in molar units) at AE1 [1] is 2.70; on AE1 [2] it was 2.27.
Take `O=C(O)c1cccnc1Nc1cccc(C(F)(F)F)c1` [NIF, Niflumic acid]: the pIC50 (in general, −log10 of the IC50, conventionally taken in molar units) on AE1 [3] was 4.82. Moreover, at AE1 [3] (50 μM throughout the experiment, n = 3), the “AE1 inhibition in cellular bicarbonate uptake, single dose” value was “statistically significant AE1 inhibition”.
